The record followed here is patent US12110281B2, “Catechol derivatives or salt thereof, processes for preparing the same, and pharmaceutical compositions comprising the same” (HEXAPHARMATEC CO., LTD., priority 2018, dated 2024).

Each structure is given as a SMILES string. “And” between values parts separate entries of the source, which are not always exact repeats. Equal values may be shown once.

One test concerns Hela cells. Description: Autophagy-inducing activities in Hela cells (Autophagy Detection Kit). It counts as cell-based. The protocol: The autophagy-inducing activities of the compounds of the present invention were measured in Hela cells (Korean Cell Line Bank), using the Autophagy Detection Kit (ab139484, Abcam), according to the manufacturer's instructions. Specifically, 100 μL of EBSS (Earle's Balanced Salt Solution, WELGENE (LB 002-03)) containing 10% fetal bovine serum (FBS) was added to each well of a 96-well plate. Hela cells (1×10^4 cells) were added to each well and then incubated overnight at 37° C. in a CO2 incubator so as to stabilize the cells. The medium of each well containing the stabilized cells was replaced with a medium obtained by adding 10 nM or 100 nM of the compounds prepared in Examples (test compounds) to a EBSS containing 10% FBS. As a positive control, rapamycin was dissolved in dimethyl sulfoxide and then treated at a concentration of 500 nM per well. After the treatments, the cells were incubated at 37° C. in a CO2 incubator for 4 hours or 24 hours and then washed twice with the 1× assay buffer (prepared by adding 9 mL of distilled water to the 10× assay buffer). EBSS containing 5% fetal bovine serum, 1 μL/ml of Green detection reagent and 1 μL/ml of Nuclear stain was added thereto in the amount of 100 μL per well. The cells were incubated for 1 hour at 37° C. in a CO2 incubator and then washed twice with the 1× assay buffer. The absorbance values were measured at 488 nm, using a microplate reader (Cytation 3). The tests were repeated four times.
The absorbance values, which were obtained by treating Hela cells with the test compounds (100 nM) and the positive control (rapamycin, 500 nM) and then incubating for 4 hours as described in above, are shown in Table 1 below. And also, the absorbance values, which were obtained by treating Hela cells with the test compounds (10 nM or 100 nM) and the positive control (rapamycin, 500 nM) and then incubating for 24 hours as described in above, are shown in Table 2 below.

Test [1] concerns dimethylnitrosamine (DMN)-induced liver injury male SD rats. Description: Liver function-improving activities by oral administration in the liver injury model (1), 3 weeks. It counts as in vivo, rat. Conditions: serum, 25 mg/kg oral once a day. The text has this:
The compounds according to the present invention were orally administered to dimethylnitrosamine (DMN)-induced liver injury male SD rats for 3 weeks, so as to evaluate liver function-improving activities. Specifically, 7-week-old male SD rats (Orient Bio, Korea) were accommodated to the laboratory environment at room temperature for 7 days. General symptoms were observed and then only healthy animals were used for the experiment. The rats were divided into 9 groups (n=5 for each group), the normal control group, the group to which only DMN is administered, and the groups to which both the compound of the present invention (the compounds of Example 2, 5, 6, 9, 10, 20 or 21) and DMN are administered. DMN was dissolved in purified water and then administered intraperitoneally at the dose of 10 mg/kg for 3 consecutive weeks (3 times per week, for 4 weeks). Blood samples were collected on Day 3 after the completion of the first-week liver injury inducement and then the ALT (Alanine Transaminase) values and the AST (Aspartate Transaminase) values were measured so as to confirm the liver injury thereof. The compounds of the present invention were administered for 3 weeks, i.e., from Day 4 after the completion of the first-week liver injury inducement to the DMN-administering period. The seven compounds of the present invention were dissolved in purified water or corn oil and then orally administered, using an oral sonde, at the dose of 25 mg/kg once a day for 3 weeks. Blood samples were collected on Day 0 (3 days after the completion of the first-week liver injury inducement) and Day 7, 14 and 21 after the administration of the test compounds. The collected blood was injected into a vacutainer tube containing a clot activator and then allowed to stand at room temperature for about 20 minutes so as to coagulate each blood sample. After centrifugation for 10 minutes, the resulting serums were subjected to blood-biochemical tests.

For test [2] the test system is unchanged. Description: Liver function-improving activities by oral administration in the liver injury model (2), 4 weeks, serum ALT/AST and liver histology. It counts as in vivo, rat. Particulars: for ALT values (average value) / AST values (average value): serum. The text has this:
The compounds according to the present invention were orally administered to dimethylnitrosamine (DMN)-induced liver injury male SD rats for 4 weeks, so as to evaluate liver function-improving activities. Specifically, 7-week-old male SD rats (Orient Bio, Korea) were accommodated to the laboratory environment at room temperature for 7 days. General symptoms were observed and then only healthy animals were used for the experiment. The rats were divided into 3 groups (n=10 for each group), the normal control group, the group to which only DMN is administered, and the group to which both the compound of the present invention (the compound of Example 21) and DMN are administered. DMN was dissolved in purified water and then administered intraperitoneally at the dose of 10 mg/kg for 3 consecutive weeks (3 times per week, for 4 weeks). Blood samples were collected after the completion of the fourth-week liver injury inducement and then the ALT (Alanine Transaminase) values and the AST (Aspartate Transaminase) values were measured so as to confirm the liver injury thereof. The compound of the present invention was administered for 4 weeks, from Day 1 after the completion of the fourth-week liver injury inducement. The compound of the present invention (the compound of Example 21) was dissolved in purified water and then orally administered, using an oral sonde, at the dose of 25 mg/kg once a day for 4 weeks. Blood samples were collected on Day 0 (1 day after the completion of the fourth-week liver injury inducement) and Day 7, 14, 21 and 28 after the administration of the test compound. The collected blood was injected into a vacutainer tube containing a clot activator and then allowed to stand at room temperature for about 20 minutes so as to coagulate each blood sample. After centrifugation for 10 minutes, the resulting serums were subjected to blood-biochemical tests. In addition, at 24 hours after the last administration, an autopsy for hepatectomy and fixation was performed to prepare the tissue specimens thereof. After preparing the slides with the tissue specimens, hematoxylin and eosin (H&E) staining was performed thereon for microscopic observation of damages to liver tissue and inflammatory cell infiltrations in liver tissues. In addition, Masson's trichrome staining was also performed thereon for microscopic observation of collagen fiber depositions in liver tissues.
In addition, the results obtained by performing hematoxylin and eosin (H&E) staining and Masson's trichrome staining as described above are shown in FIGS. 3 and 4, respectively. From the results of FIG. 3, the degrees of damages to liver tissue and the degrees of inflammatory cell infiltrations in liver tissues were measured. And also, from the results of FIG. 4, the degrees of collagen fiber depositions in liver tissues were measured.

The mark [3] stands for this setting: 0 week (Day 0, before administration of test compound).
Setting [4] is: 3 weeks after the administration.
[5] abbreviates: 4 weeks after the administration.
Where [6] appears, read: liver tissue, H&E staining, after 4 weeks 25 mg/kg oral, hydrochloride.
Where [7] appears, read: 0 week (Day 0, after 4 weeks DMN), 25 mg/kg oral once a day.
[8] abbreviates: 1 week, 25 mg/kg oral once a day after 4 weeks DMN.
Where [9] appears, read: 2 weeks, 25 mg/kg oral once a day after 4 weeks DMN.
The mark [10] stands for this setting: 3 weeks, 25 mg/kg oral once a day after 4 weeks DMN.
Setting [11] is: 4 weeks, 25 mg/kg oral once a day after 4 weeks DMN.

On to `CCN(CC)CCOc1ccc(-c2ccc(C(=S)NC(C)C)s2)cc1OC.Cl` [Example 10, N-isopropyl-5-(4-(2-diethylamino)ethoxy-3-methoxyphenyl)thiophene-2-thiocarboxamide hydrochloride], for which the “Absorbance (at 488 nm)” value in the test with Hela cells (test compound 10 nM, incubation for 24 hours) stood at 1729.3; in the test on Hela cells (test compound 100 nM, incubation for 4 hours), 1390.0; in the test on Hela cells (test compound 100 nM, incubation for 24 hours) it was 1882.3. Besides, the “ALT values (average value)” value is 67.46 U/L in test [1] (setting [3]), 85.06 U/L in test [1] (1 week), 102.94 U/L in test [1] (2 weeks) and 102.94 U/L in test [1] (3 weeks). The “AST values (average value)” value in test [1] (setting [3]) is on record as 145.00 U/L; in test [1] (1 week), 202.52 U/L; in test [1] (2 weeks) it was 218.60 U/L; in test [1] (3 weeks), 199.34 U/L.
On to `CCN(CC)CCOc1ccc(-c2ccc(C(=O)NCC3(N(C)C)CCOCC3)s2)cc1OC.Cl.Cl` [Example 21, N-((4-(dimethylamino)tetrahydro-2H-pyran-4-yl)methyl)-5-(4-(2-diethylamino)ethoxy-3-methoxyphenyl)thiophene-2-carboxamide hydrochloride], for which the “ALT values (average value)” value in test [1] (setting [3]) is recorded as 70.98 U/L; in test [1] (1 week), 98.84 U/L; in test [1] (2 weeks) it was 104.54 U/L; in test [1] (3 weeks) it was 101.18 U/L; in test [2] (setting [7]), 198.02 U/L; in test [2] (setting [8]) it was 92.71 U/L. In addition, the “ALT values (average value)” value was determined as 57.61 U/L in test [2] (setting [9]), 44.48 U/L in test [2] (setting [10]) and 48.33 U/L in test [2] (setting [11]). Further, the “AST values (average value)” value in test [1] (setting [3]) was 142.10 U/L; in test [1] (1 week) it was 201.30 U/L; in test [1] (2 weeks), 208.26 U/L; in test [1] (3 weeks), 195.10 U/L; in test [2] (setting [7]) it was 329.92 U/L; in test [2] (setting [8]), 158.91 U/L. In addition, the entries for the “AST values (average value)” value in test [2] (setting [9]), in test [2] (setting [10]) and in test [2] (setting [11]) were 107.61 U/L, 112.06 U/L and 110.45 U/L, respectively. Besides, the figures for the “ALT decrease in comparison with the DMN-administered group” value in test [2] (setting [4]) and in test [2] (setting [5]) were 30% and 26%, respectively. The “AST decrease in comparison with the DMN-administered group” value in test [2] (setting [4]) is 22%; in test [2] (setting [5]), 30%. The “collagen fiber depositions in liver tissues reduced in comparison with the DMN-administered group” value in test [2] (after 4 weeks) is given as “about 62%”. Besides, the “damages to liver tissue ameliorated in comparison with the DMN-administered group” value in test [2] (after 4 weeks) is reported as “about 50%”. In addition, the “inflammatory cell infiltrations in liver tissues ameliorated in comparison with the DMN-administered group” value in test [2] (after 4 weeks) is given as approximately 55%. Also, the Degenerative hepatocyte numbers in test [2] (setting [6]) is 276.0 cells/1000 cells and 276.00 ± 16.64 cells/1000 cells. Also, the Inflammatory cell numbers in test [2] (setting [6]) was 85.33 cells/mm^2 and 85.33 ± 8.41 cells/mm^2. In addition, the “Collagen fiber occupied regions” value in test [2] (liver tissue, Masson's trichrome staining, after 4 weeks 25 mg/kg oral, hydrochloride) was 10.98 %/mm^2 and 10.98 ± 1.33 %/mm^2.
